Assay results published in PubChem BioAssay (NCI).
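In this assay, cells in 96-well plates receive the compound at five concentrations for 48 hours. Endpoints are linearly interpolated between the surrounding concentrations. TGI: concentration producing complete growth inhibition.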

What was measured:
Test in all cases: growth of human tumour cells (NCI), 48 h
[1] = system: T-47D breast
[2] = system: TK-10 renal
[3] = system: OVCAR-5 ovarian
[4] = system: U251 CNS
[5] = system: A549 NSCLC
[6] = system: EKVX NSCLC
[7] = system: BT-549 breast
[8] = system: SF-539 CNS
[9] = system: KM12 colon
[10] = system: SK-OV-3 ovarian
[11] = system: SN12C renal
[12] = system: SK-MEL-2 melanoma
[13] = system: UACC-257 melanoma
[14] = system: UO-31 renal
[15] = system: NCI-H460 lung
[16] = system: NCI/ADR-RES ovarian
[17] = system: OVCAR-3 ovarian
[18] = system: M14 melanoma
[19] = system: PC-3 prostate
[20] = system: HS 578T breast
[21] = system: SNB-19 CNS
[22] = system: SR leukemia
[23] = system: MOLT-4 leukemia
[24] = system: SNB-75 CNS
[25] = system: HCT-116 colon
[26] = system: LOX IMVI melanoma
[27] = system: OVCAR-4 ovarian
[28] = system: SF-295 CNS
[29] = system: UACC-62 melanoma
[30] = system: MCF7 breast
[31] = system: NCI-H522 lung
[32] = system: HCT-15 colon
[33] = system: SF-268 CNS
[34] = system: MDA-MB-435
[35] = system: CAKI-1 renal
[36] = system: HT29 colon
[37] = system: HL-60(TB) leukemia
[38] = system: SK-MEL-28 melanoma
[39] = system: HOP-62 NSCLC
[40] = system: IGROV1 ovarian
[41] = system: COLO 205 colon
[42] = system: DU-145 prostate
[43] = system: MALME-3M melanoma
[44] = system: CCRF-CEM leukemia
[45] = system: OVCAR-8 ovarian
[46] = system: ACHN renal

CN(CCCNC(=O)c1nn(-c2ccccc2)c2c1ccc1ccccc12)CCCNC(=O)c1nn(-c2ccccc2)c2c1ccc1ccccc12
TGI [1]: 3.78 µM | TGI [2]: 3.58 µM | TGI [3]: 5.24 µM | TGI [4]: 3.01 µM | TGI [5]: 2.85 µM | TGI [6]: 3.1 µM | TGI [7]: 3.04 µM | TGI [8]: 3.62 µM | TGI [9]: 3.96 µM | TGI [10]: 3.38 µM | TGI [11]: 3.32 µM | TGI [12]: 3.15 µM | TGI [13]: 3.65 µM | TGI [14]: 2.91 µM | TGI [15]: 2.97 µM | TGI [16]: 3.53 µM | TGI [17]: 2.73 µM | TGI [18]: 3.16 µM | TGI [19]: 2.77 µM | TGI [20]: > 100 µM | TGI [21]: 3.29 µM | TGI [22]: 2.75 µM | TGI [23]: 3.42 µM | TGI [24]: 2.88 µM | TGI [25]: 3.13 µM | TGI [26]: 2.95 µM | TGI [27]: 3.02 µM | TGI [28]: 3.69 µM | TGI [29]: 3.03 µM | TGI [30]: 3.32 µM | TGI [31]: 3.17 µM | TGI [32]: 3.16 µM | TGI [33]: 3.39 µM | TGI [34]: 2.92 µM | TGI [35]: 2.7 µM | TGI [36]: 3.2 µM | TGI [37]: 3.07 µM | TGI [38]: 3.01 µM | TGI [39]: 3.69 µM | TGI [40]: 2.87 µM | TGI [41]: 3.63 µM | TGI [42]: 3.92 µM | TGI [43]: 3.47 µM | TGI [44]: 0.628 µM | TGI [45]: 3.38 µM | TGI [46]: 3.17 µM
